Where two headings read alike, the source gives them in different places.
How the values were obtained:
[1] = test system: ventral prostate and levator ani of immature castrated male Sprague Dawley rats; test: Ventral Prostate and Levator ani Weight in vivo Assay (agonist activity); design: key to % Prostate Stimulation / % levator ani Stimulation: level 1 agonist active if it produced greater than or equal to 30% stimulation of levator ani or ventral prostate at 30 mg/kg; level 2 agonist active if it produced greater than or equal to 5% but less than 30% stimulation of levator ani or ventral prostate at 30 mg/kg; listed herein as “inactive” as they did not meet the specified criteria defined above; conditions: once daily for five days, oral, vehicle = 0%, testosterone propionate = 100%, criteria at 30 mg/kg; for change in vivo at 30 mg/kg: Rattus norvegicus, 120 h
Experimental: Immature (approximately 50 g) castrated male Sprague Dawley rats (Charles River) were treated once daily for five days with test compound ([…], in 30% cyclodextrin or 0.5% methylcellulose vehicle), or with testosterone propionate (administered subcutaneously by injection at the nape of the neck at 5 mg/kg, in a volume of 0.1 mL in sesame oil), or with vehicle (1 mL of 30% cyclodextrin or 0.5% methylcellulose, given orally). On the sixth day, the rats were euthanized by asphyxiation in carbon dioxide. Ventral prostates and levator ani. muscle were removed and their wet weights determined.
Test compound activity was determined as the percent stimulation of tissue weight, with the vehicle-treated control group set to zero percent and the testosterone alone-treated control group set to 100%.

[2] = test system: ventral prostate and seminal vesicle of immature castrated male Sprague Dawley rats; test: Ventral Prostate and Seminal Vesicle Weight in vivo Assay (antagonist activity, with testosterone propionate); design: key to Inhibition of prostate (non-weight prostate weight, mg) / Inhibition of seminal vesicle (non-weight seminal vesicle weight, mg): level 1 agonist active if it produced greater than or equal to 30% stimulation of levator ani or ventral prostate at 30 mg/kg; level 2 agonist active if it produced greater than or equal to 5% but less than 30% stimulation of levator ani or ventral prostate at 30 mg/kg; listed herein as “inactive” as they did not meet the specified criteria defined above; conditions: test compound oral plus testosterone propionate 2 mg/kg s.c., five days, criteria at 30 mg/kg; for inhibition in vivo at 30 mg/kg: Rattus norvegicus, 120 h
Experimental: Immature (approximately 50 g) castrated male Sprague Dawley rats (Charles River) were treated once daily for five days with test compound ([…], in 30% cyclodextrin or 0.5% methylcellulose vehicle) and with testosterone propionate (given subcutaneously by injection at the nape of the neck at 2 mg/kg, in a volume of 0.1 mL in sesame oil). On the sixth day, the rats were euthanized by asphyxiation in carbon dioxide. Ventral prosatates and seminal vesicles were removed and their wet weights determined. Test compound activity was determined as the percent inhibition of testosterone-enhanced tissue weights, with a vehicle-treated control group set to zero percent and a testosterone alone-treated control group set to 100%.

[3] = levator ani wet weight, read-out: % levator ani Stimulation
[4] = ventral prostate wet weight, read-out: % Prostate Stimulation
[5] = ventral prostate wet weight, read-out: Inhibition of prostate (non-weight prostate weight, mg)
[6] = seminal vesicle wet weight, read-out: Inhibition of seminal vesicle (non-weight seminal vesicle weight, mg)
[7] = levator ani wet weight, 30 mg/kg
[8] = ventral prostate wet weight, 30 mg/kg

## C[C@]12CC(C(F)(F)F)=NN1C(NC(=O)Nc1ccc(I)cc1)=N/C2=N\c1ccc(C#N)c(C(F)(F)F)c1 [Compound 14, 1-[4-(4-Cyano-3-trifluoromethyl-phenylimino)-3aR-methyl-2-trifluoromethyl-3a,4-dihydro-3H-imidazo[1,5-b]pyrazol-6-yl]-3-(4-iodo-phenyl)-urea]
[1]; [3]
  change in vivo at 30 mg/kg: ≥ 30%
[1]; [4]
  change in vivo at 30 mg/kg: 5 to 30%
[2]; [5]
  inhibition in vivo at 30 mg/kg: 5 to 30%
[2]; seminal vesicle wet weight
  Inhibition of seminal vesicle (non-weight seminal vesicle weight, mg): inactive

## CCc1c(/N=C2\N=C(N)N3N=C(C(F)(F)F)CC23C)ccc(C#N)c1C(F)(F)F (stereo not drawn) [Compound 9, 4-(6-Amino-3a-methyl-2-trifluoromethyl-3,3a-dihydro-imidazo[1,5-b]pyrazol-4-ylideneamino)-3-ethyl-2-trifluoromethyl-benzonitrile]
[1]; [3]
  change in vivo at 30 mg/kg: 5 to 30%
[1]; [4]
  change in vivo at 30 mg/kg: 5 to 30%
[2]; [6]
  inhibition in vivo at 30 mg/kg: ≥ 30%
[2]; [5]
  inhibition in vivo at 30 mg/kg: 5 to 30%

## C[C@]12CC(C(F)(F)F)=NN1C(N)=N/C2=N\c1ccc(C#N)c(C(F)(F)F)c1 [Compound 2, 4-(6-Amino-3aR-methyl-2-trifluoromethyl-3,3a-dihydro-imidazo[1,5-b]pyrazol-4-ylideneamino)-2-trifluoromethyl-benzonitrile]
[1]; [3]
  change in vivo at 30 mg/kg: ≥ 30%
[1]; [4]
  change in vivo at 30 mg/kg: ≥ 30%
[2]; [5]
  inhibition in vivo at 30 mg/kg: 5 to 30%
[2]; seminal vesicle wet weight
  Inhibition of seminal vesicle (non-weight seminal vesicle weight, mg): inactive

## CCC12CC(C(F)(F)F)=NN1C(N)=N/C2=N\c1ccc(C#N)c(C(F)(F)F)c1 (stereo not drawn) [Compound 8, 4-(6-Amino-3a-ethyl-2-trifluoromethyl-3,3a-dihydro-imidazo[1,5-b]pyrazol-4-ylideneamino)-2-trifluoromethyl-benzonitrile]
[1]; [3]
  change in vivo at 30 mg/kg: 5 to 30%
[1]; [4]
  change in vivo at 30 mg/kg: 5 to 30%
[2]; [6]
  inhibition in vivo at 30 mg/kg: 5 to 30%
[2]; ventral prostate wet weight
  Inhibition of prostate (non-weight prostate weight, mg): inactive

## C[C@]12CC(C(F)(F)F)=NN1C(N)=NC2=Nc1ccc(C#N)c(C(F)(F)F)c1.O [Compound 17, 4-(6-Amino-3aR-methyl-2-trifluoromethyl-3,3a-dihydro-imidazo[1,5-b]pyrazol-4-ylideneamino)-2-trifluoromethyl-benzonitrile-Hydrates]
[1]; [7]
  % levator ani Stimulation: level 1 (level 1 agonist active if it produced greater than or equal to 30% stimulation of levator ani or ventral prostate at 30 mg/kg)
[1]; [8]
  % Prostate Stimulation: level 2 (level 2 agonist active if it produced greater than or equal to 5% but less than 30% stimulation of levator ani or ventral prostate at 30 mg/kg)
[2]; seminal vesicle wet weight
  Inhibition of seminal vesicle (non-weight seminal vesicle weight, mg): leve 1
[2]; ventral prostate wet weight
  Inhibition of prostate (non-weight prostate weight, mg): inactive

## C[C@@]12CC(C(F)(F)F)=NN1C(N)=N/C2=N\c1ccc(C#N)c(C(F)(F)F)c1 [Compound 3, 4-(6-Amino-3aS-methyl-2-trifluoromethyl-3,3a-dihydro-imidazo[1,5-b]pyrazol-4-ylideneamino)-2-trifluoromethyl-benzonitrile]
[1]; [3]
  change in vivo at 30 mg/kg: ≥ 30%
[1]; [4]
  change in vivo at 30 mg/kg: 5 to 30%
[2]; [6]
  inhibition in vivo at 30 mg/kg: 5 to 30%
[2]; [5]
  inhibition in vivo at 30 mg/kg: ≥ 30%

## C[C@]12CC(C(F)(F)F)=NN1C(NC(=O)C(F)(F)F)=N/C2=N\c1ccc(C#N)c(C(F)(F)F)c1 [Compound 13, N-[4-(4-Cyano-3-trifluoromethyl-phenylimino)-3aR-methyl-2-trifluoromethyl-3a,4-dihydro-3H-imidazo[1,5-b]pyrazol-6-yl]-2,2,2-trifluoro-acetamide]
[1]; [3]
  change in vivo at 30 mg/kg: ≥ 30%
[1]; [4]
  change in vivo at 30 mg/kg: ≥ 30%
[2]; [6]
  inhibition in vivo at 30 mg/kg: 5 to 30%
[2]; [5]
  inhibition in vivo at 30 mg/kg: ≥ 30%

## CCOC(=O)C1=NN2C(N)=N/C(=N\c3ccc(C#N)c(C(F)(F)F)c3)C2(C)C1 (stereo not drawn) [Compound 7, 6-Amino-4-(4-cyano-3-trifluoromethyl-phenylimino)-3a-methyl-3a,4-dihydro-3H-imidazo[1,5-b]pyrazole-2-carboxylic acid ethyl ester]
[1]; [3]
  change in vivo at 30 mg/kg: 5 to 30%
[1]; [4]
  change in vivo at 30 mg/kg: 5 to 30%
[2]; [6]
  inhibition in vivo at 30 mg/kg: 5 to 30%
[2]; ventral prostate wet weight
  Inhibition of prostate (non-weight prostate weight, mg): inactive

## CC12CC(C(F)(F)F)=NN1C(N)=N/C2=N\c1ccc(Cl)c(Cl)c1 (stereo not drawn) [Compound 4, 4-(3,4-Dichloro-phenylimino)-3a-methyl-2-trifluoromethyl-3a,4-dihydro-3H-imidazo[1,5-b]pyrazol-6-ylamine]
[1]; levator ani wet weight
  % levator ani Stimulation: inactive
[1]; ventral prostate wet weight
  % Prostate Stimulation: inactive
[2]; [6]
  inhibition in vivo at 30 mg/kg: 5 to 30%
[2]; [5]
  inhibition in vivo at 30 mg/kg: 5 to 30%

## CC12CC(C(F)(F)F)=NN1C(N)=N/C2=N\c1ccc(Br)c(C(F)(F)F)c1 (stereo not drawn) [Compound 10, 4-(4-Bromo-3-trifluoromethyl-phenylimino)-3a-methyl-2-trifluoromethyl-3a,4-dihydro-3H-imidazo[1,5-b]pyrazol-6-ylamine]
[1]; levator ani wet weight
  % levator ani Stimulation: inactive
[1]; ventral prostate wet weight
  % Prostate Stimulation: inactive
[2]; [6]
  inhibition in vivo at 30 mg/kg: 5 to 30%
[2]; [5]
  inhibition in vivo at 30 mg/kg: 5 to 30%

## C[C@]12CC(C(F)(F)F)=NN1C(N)=NC2=Nc1ccc(C#N)c(C(F)(F)F)c1.O [Compound 16, 4-(6-Amino-3aR-methyl-2-trifluoromethyl-3,3a-dihydro-imidazo[1,5-b]pyrazol-4-ylideneamino)-2-trifluoromethyl-benzonitrile-Hydrates]
[1]; [7]
  % levator ani Stimulation: level 1 (level 1 agonist active if it produced greater than or equal to 30% stimulation of levator ani or ventral prostate at 30 mg/kg)
[1]; [8]
  % Prostate Stimulation: level 1 (level 1 agonist active if it produced greater than or equal to 30% stimulation of levator ani or ventral prostate at 30 mg/kg)
[2]; seminal vesicle wet weight
  Inhibition of seminal vesicle (non-weight seminal vesicle weight, mg): level 2 (level 2 antagonist active if it produced greater than or equal to 5% but less than 30% inhibition of ventral prostate or seminal vesicle at 30 mg/kg)
[2]; ventral prostate wet weight
  Inhibition of prostate (non-weight prostate weight, mg): level 2 (level 2 antagonist active if it produced greater than or equal to 5% but less than 30% inhibition of ventral prostate or seminal vesicle at 30 mg/kg)

## C[C@@]12CC(C(F)(F)F)=NN1C(N)=NC2=Nc1ccc(C#N)c(C(F)(F)F)c1.O [Compound 21, 4-(6-Amino-3aS-methyl-2-trifluoromethyl-3,3a-dihydro-imidazo[1,5-b]pyrazol-4-ylideneamino)-2-trifluoromethyl-benzonitrile-Hydrates]
[1]; [7]
  % levator ani Stimulation: level 1 (level 1 agonist active if it produced greater than or equal to 30% stimulation of levator ani or ventral prostate at 30 mg/kg)
[1]; [8]
  % Prostate Stimulation: level 1 (level 1 agonist active if it produced greater than or equal to 30% stimulation of levator ani or ventral prostate at 30 mg/kg)
[2]; seminal vesicle wet weight
  Inhibition of seminal vesicle (non-weight seminal vesicle weight, mg): level 1 (level 1 antagonist active if it produced greater than or equal to 30% inhibition of ventral prostate or seminal vesicle at 30 mg/kg)
[2]; ventral prostate wet weight
  Inhibition of prostate (non-weight prostate weight, mg): level 1 (level 1 antagonist active if it produced greater than or equal to 30% inhibition of ventral prostate or seminal vesicle at 30 mg/kg)

## CC12CC(C(F)(F)F)=NN1C(N)=N/C2=N\c1ccc(C#N)c(C(F)(F)F)c1 (stereo not drawn) [Compound 1, 4-(6-Amino-3a-methyl-2-trifluoromethyl-3,3a-dihydro-imidazo[1,5-b]pyrazol-4-ylideneamino)-2-trifluoromethyl-benzonitrile]
[1]; [3]
  change in vivo at 30 mg/kg: ≥ 30%
[1]; [4]
  change in vivo at 30 mg/kg: ≥ 30%
[2]; [6]
  inhibition in vivo at 30 mg/kg: ≥ 30%
[2]; [5]
  inhibition in vivo at 30 mg/kg: 5 to 30%

## CC12CC(c3c(F)c(F)c(F)c(F)c3F)=NN1C(N)=N/C2=N\c1ccc(C#N)c(C(F)(F)F)c1 (stereo not drawn) [Compound 11, 4-(6-Amino-3a-methyl-2-pentafluorophenyl-3,3a-dihydro-imidazo[1,5-b]pyrazol-4-ylideneamino)-2-trifluoromethyl-benzonitrile]
[1]; [3]
  change in vivo at 30 mg/kg: 5 to 30%
[1]; [4]
  change in vivo at 30 mg/kg: 5 to 30%
